Source: article PMC6934184, “Selective DNA-PKcs inhibition extends the therapeutic index of localized radiotherapy and chemotherapy” (The Journal of Clinical Investigation, 2019)

Target: T1, SPHK2 (Homo sapiens, UniProt Q9NRA0)
T1 construct: purchased Thermo Fisher Scientific (Life Technologies) SelectScreen
Test: SelectScreen Adapta
Format: biochemical
Settings: ATP 10 µM
Protocol: The in vitro kinase selectivity of NU5455 was determined using the SelectScreen Broad Assay Panel (Thermo Fisher Scientific) involving activity and binding assays (Supplemental Table 1). […] Class IA PI3Ks were measured using the p85α subunit.
Kinase [ATP] % Assay Kinase [ATP] % Assay Kinase [ATP] % Assay Kinase [ATP] % Assay […]
MAPK14 (p38 alpha) Km app 9.7 Z SPHK2 10 3.1 A ICK n/a 0.0 L SGKL (SGK3) Km app -4.6 Z […]
SGK (SGK1) Km app 8.5 Z MAP4K2 (GCK) Km app 2.7 Z TLK2 n/a -0.3 L STK38 (NDR) n/a -5.9 L
MERTK (cMER) Km app 8.3 Z CDK2/cyclin A Km app 2.7 Z TGFBR1 (ALK5) n/a -0.4 L MATK (HYL) Km app -6.3 Z
FYN Km app 8.3 Z EPHA1 Km app 2.7 Z CLK3 Km app -0.5 Z ABL1 E255K Km app -6.6 Z
TEC n/a 8.1 L CDK2/cyclin E1 n/a 2.7 L MAP3K14 (NIK) n/a -0.5 L STK17A (DRAK1) n/a -6.6 L
KIT V654A n/a 8.1 L TESK2 n/a 2.7 L AKT3 (PKB gamma) Km app -0.5 Z JAK2 JH1 JH2 Km app -6.7 Z
ROS1 Km app 8.0 Z SPHK1 Km app 2.7 A MAP3K9 (MLK1) Km app -0.5 Z PRKACB (PRKAC beta) n/a -6.8 L
FGFR3 K650E Km app 7.9 Z AMPK A2/B1/G1 Km app 2.6 Z IKBKB (IKK beta) Km app -0.6 Z PDGFRA (PDGFR alpha) Km app -6.8 Z
RAF1 (cRAF) Y340D Y341D 100 7.9 Z DYRK3 Km app 2.6 Z CAMK2A (CaMKII alpha) Km app -0.6 Z NEK9 Km app -7.2 Z
PI4KA (PI4K alpha) 10 7.8 A CSNK1D (CK1 delta) Km app 2.6 Z PRKCB1 (PKC beta I) Km app -0.7 Z PDK1 Km app -7.3 Z
HIPK2 Km app 7.8 Z ACVR2A n/a 2.5 L TTK n/a -0.7 L RPS6KB1 (p70S6K) Km app -7.8 Z […]

T1 sequence (Q9NRA0 whole entry): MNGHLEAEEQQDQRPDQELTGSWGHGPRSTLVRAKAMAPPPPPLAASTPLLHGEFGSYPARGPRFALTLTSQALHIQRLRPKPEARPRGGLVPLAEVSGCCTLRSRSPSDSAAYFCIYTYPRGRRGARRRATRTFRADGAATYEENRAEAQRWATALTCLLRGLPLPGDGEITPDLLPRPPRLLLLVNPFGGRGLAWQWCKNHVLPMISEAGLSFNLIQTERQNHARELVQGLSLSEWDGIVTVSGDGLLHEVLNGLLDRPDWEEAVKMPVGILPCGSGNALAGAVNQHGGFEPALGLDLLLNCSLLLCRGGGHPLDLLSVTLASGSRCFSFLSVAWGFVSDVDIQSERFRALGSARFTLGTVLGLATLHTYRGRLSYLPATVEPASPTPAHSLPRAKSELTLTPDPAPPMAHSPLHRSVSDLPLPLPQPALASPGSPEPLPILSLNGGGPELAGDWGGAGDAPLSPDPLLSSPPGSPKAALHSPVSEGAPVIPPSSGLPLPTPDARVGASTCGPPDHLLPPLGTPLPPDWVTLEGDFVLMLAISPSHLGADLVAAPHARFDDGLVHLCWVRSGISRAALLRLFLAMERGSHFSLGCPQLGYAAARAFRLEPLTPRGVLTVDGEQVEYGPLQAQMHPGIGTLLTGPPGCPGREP

## CN(C(=O)CN1CCOCC1)c1ccc2sc3c(-c4cccc5c(=O)cc(N6CC7CCC(C6)O7)oc45)cccc3c2c1 [NU5455]
  inhibition at 1 µM: 3.1%
